The values below come from patent US20080214398A1, “Herbicidal activities of combinations of sodium azide with sulfur containing and other deactivating compounds” (priority 2005, published 2008).

Series [1] relates to annual morningglory (Ipomoea spp.). The class given is in vivo. An excerpt:
The effects on herbicidal activity of combinations of SEP 100 (Na azide) with metam Na, Na thiosulfate, methyl disulfide and the herbicide EPTC (Eptam 7E, Eradicane 6.7E) were studied in greenhouse experiments. In a first experiment SEP 100 was applied by drenching (1″ acre water) at 150 lbs a.i./A to pots (4 inch diam; PVC) containing each 2.2 pounds of silt loam (pH 6.2; org. matter <1.0%) from a cotton field. Immediately after treatment each pot was covered with a clear polyethylene bag (1.5 mil). The bags were removed 4 days after, and additional applications were drenched in with: Vapam HL, at 120 gal/A; EPTC at 8 and 10 lbs ai/A; Na thiosulfate at 200 and 300 lbs ai/A; and methyl disulfide at 300 lbs ai/A. Pots were again covered with the bags for 3 days after which they were removed and pots planted with annual morningglory (Ipomoea spp.; 25 seed/pot). Some pots received only SEP 100 and others received water only. Each treatment was represented by 7 pots (experimental units) arranged in a randomized complete block design on a bench. The number of plants in each pot was determined at 10, 13, and 26 days after application of SEP 100. Momingglory plant tops were collected from each pot 33 days after initiation of the experiment and their fresh weight was determined.

For series [2], the system named is Morningglory (Ipomoea spp.). The class given is in vivo. An excerpt:
Compounds: Sodium azide, metam sodium (Vapam HL), EPTC, sodium thiosulfate, and methyl disulfide were delivered in aqueous solutions or emulsions (5% of SEP 100 for sodium azide; 5% for Vapam; 0.25% for EPTC, 2.5% for sodium thiosulfate; 2.5% for methyl disulfide) prepared immediately before use by diluting in demineralized water while stirring with a magnetic stirrer.
Sources: SEP 100 from American Pacific Corp., metam sodium as Vapam HL (32, 7% a.i.) from AMVAC, EPTC from Gowen, sodium thiosulfate and methyl disulfide from Aldrich.
Rates: Metam sodium at 163.5 mgs a.i./kg soil-equivalent to 0, and 327 lbs a.i./acre (120 gal Vapam HL/A). Sodium azide at 75 mgs a.i./kg soil equivalent to 150 lbs a.i./A, sodium thiosulfate at 200 and 300 lbs/A; EPTC at 8 and 10 lbs/A, and methyl disulfide at 300 lbs/A.
All different possible combinations of sodium azide with the other deactivating compounds and their corresponding rates were included in the experiment together with the appropriate controls.
Application Method and Procedure: Each treatment was delivered by drenching in 100 mls aqueous volume onto the soil surface in pots (10-cm diam; PVC) containing 1 kg soil. The soil was from a cotton field (silt loam; pH 6.2; CEC<10 meq/100 gm soil; org. matter <1.0%). Sodium azide was applied on day one, and the other compounds four days later. Immediately after treatment the pots were covered by a thick (1.5 mil) clear low density polyethylene bag held tight against the outer wall of the pot by a rubber band. Three days after application of “deactivator compounds” the bags were removed and the pots were planted with morningglory seed (25 seed/pot). Counts were taken from each pot (experimental unit) at 10, 13, and 26 days after application of sodium azide. Morningglory plant tops were collected from each pot 33 days after initiation of the experiment and fresh weights were determined.
Major Pests: Morningglory (Ipomoea spp.)
Experimental Design: Randomized complete block with seven replications/treatment.
Statistical Analyses: Anova and Fischer's least significant difference (flsd) at p 0.05. Regression analyses.

The test system of series [3] is morningglory. Kind of series: Example 2 greenhouse pot experiment, fixed Vapam HL rate with SEP 100 rates. The class given is in vivo, Ipomoea spp. The settings on record: Vapam HL 60 gal/A on soil treated with SEP 100 40-120 lbs a.i./A. The source says:
The effects on herbicidal activity of combinations of SEP 100 (Na azide) with metam Na, Na thiosulfate, methyl disulfide and the herbicide EPTC (Eptam 7E, Eradicane 6.7E) were studied in greenhouse experiments. In a first experiment SEP 100 was applied by drenching (1″ acre water) at 150 lbs a.i./A to pots (4 inch diam; PVC) containing each 2.2 pounds of silt loam (pH 6.2; org. matter <1.0%) from a cotton field. Immediately after treatment each pot was covered with a clear polyethylene bag (1.5 mil). […] The number of plants in each pot was determined at 10, 13, and 26 days after application of SEP 100. Momingglory plant tops were collected from each pot 33 days after initiation of the experiment and their fresh weight was determined.
A second experiment explored the interaction between a fixed rate of Vapam HL (60 gal/A) and applications of SEP 100 in the 40-120 lbs a.i./A range. The methods and procedure followed were as for the first experiment except that weed counts were taken at 13 and 17 days after application and plant top weights were determined 32 days after initiation of the experiment.

The subject of series [4] is morningglory. The source says: Compounds: sodium azide and metam sodium (Vapam HL) were delivered in aqueous solutions (1.0% of SEP 100 for sodium azide; 5% for Vapam) prepared immediately before use by diluting in demineralized water while stirring with a magnetic stirrer.
Source: SEP 100 from American Pacific Corp., and metam sodium as Vapam HL (32, 7% a.i.) from AMVAC.
Rates: Metam sodium at 0, and 82 mgs a.i./kg soil-equivalent to 0, and 60 gal/A. Sodium azide at 0, 20, 40 and 60 mgs a.i./kg soil equivalent to 0, 40, 80, and 120 lbs a.i./A, respectively. Each metam sodium rate was applied to soil in combination with each sodium azide dose.

The subject of another series is warm season turf species. The settings on record: cited from earlier work.
Where [5] appears, read: applied 4 days after sodium azide 150 lbs a.i./A, metam sodium 327 lbs a.i./acre, sodium thiosulfate 200 and 300 lbs/A, methyl disulfide 300 lbs/A, 10, 13, 26 days.

Entries after “also recorded” stand apart in the source; their conditions may differ. Like-named read-outs stand apart in the source and are kept apart here.

Regarding `CCCN(CCC)C(=O)SCC` [EPTC, S-ethyl dipropylthiocarbamate], the “herbicidal activity against morningglory” value is reported as “strongly herbicidal” in series [1] (EPTC 8 and 10 lbs ai/A, SEP 100 150 lbs a.i./A); “strongly herbicidal” in series [2] (EPTC 8 and 10 lbs/A, sodium azide 150 lbs a.i./A).
As for `CNC(=S)S` [metam sodium, sodium methyl dithiocarbamate], the “effect on morningglory top weights (FIG. 2B)” value with morningglory [3] (32 days) is “diminished herbicidal activity of sodium azide”. In addition, in the series on morningglory [3] (counts at 13 and 17 days), the “effect on herbicidal activity of Na azide (number of morningglory plants, FIG. 2A)” value is recorded as “diminishes the herbicidal activity of sodium azide”. The “effect on herbicidal activity of sodium azide (number of morningglory plants per pot, FIGS. 3A-3C)” value in series [2] (setting [5]) is recorded as “significantly reduced the herbicidal activity of sodium azide; also recorded: nullified the herbicidal activity of sodium azide”. Further, the “morningglory growth / top weights (FIG. 3D)” value in series [2] (sodium azide 150 lbs a.i./A, then metam sodium 327 lbs a.i./acre, 33 days) was “synergistic beneficial effects”. Also, the “effect on morningglory top weights” value in the series on morningglory [4] (metam sodium 60 gal/A on soil previously treated with sodium azide) is recorded as “synergistic beneficial effects”. Also, the “effect on herbicidal activity of sodium azide (number of morningglory plants per pot, FIGS. 4A-4C)” value in the series with morningglory [4] (metam sodium 60 gal/A with sodium azide 0, 40, 80, 120 lbs a.i./A, 13, 17, 30 days) is recorded as “nullified the herbicidal activity of sodium azide”.
Take `CSSC` [methyl disulfide]: the “effect on herbicidal activity of Na azide (number of morningglory plants, FIG. 1A)” value in series [1] (applied 4 days after SEP 100 150 lbs a.i./A, Vapam HL 120 gal/A, Na thiosulfate 200 and 300 lbs ai/A, methyl disulfide 300 lbs ai/A, counts at 10, 13, 26 days) is “little effect”. Further, the “effect on herbicidal activity of sodium azide (number of morningglory plants per pot, FIGS. 3A-3C)” value in series [2] (setting [5]) is “inconclusive”.
`[N-]=[N+]=[N-]` [sodium azide]: in the series with warm season turf species, the “plant back interval required for successful establishment” value was 3-4 weeks.
For the compound `O=S([O-])([O-])=S.[Na+].[Na+]` [sodium thiosulfate], the “effect on herbicidal activity of Na azide (number of morningglory plants, FIG. 1A)” value in series [1] (in vivo) is given as “little effect”. For the same compound, the “effect on herbicidal activity of sodium azide (number of morningglory plants per pot, FIGS. 3A-3C)” value in series [2] (in vivo) is recorded as “inconclusive”.
